pIC50: −log10 of the molar value. Non-standard residues stand in square brackets, D forms with d. Residues, ends and D or L forms follow the SMILES beside them. Hyp = O=C(O)[C@@H]1C[C@@H](O)CN1; NMeNle = CCCC[C@H](NC)C(=O)O; NMeA = CN[C@@H](C)C(=O)O; Dab = NCC[C@H](N)C(=O)O; Dap = NC[C@H](N)C(=O)O; GABA = NCCCC(=O)O; βAla = NCCC(=O)O; Sar = CNCC(=O)O
Target: T1, PD-1-Ig binding to PD-L1-TVMV-His (PD-L1-His) (Homo sapiens, UniProt Q9NZQ7)
T1 construct: hPDL1(19-239)-TVMV-His; made in house; host or cells: HEK293T cells
Test: PD-1/PD-L1 Homogenous Time-Resolved Fluorescence (HTRF) binding assay
Details: PD-1-Ig (20 nM) / PD-L1-His (10 nM); numeric values
Excerpt: The ability of the macrocyclic peptides of the present disclosure to bind to PD-L1 was investigated using a PD-1/PD-L1 Homogenous Time-Resolved Fluorescence (HTRF) binding assay.
Homogenous Time-Resolved Fluorescence (HTRF) Assays of Binding of Soluble PD-1 to Soluble PD-L1. Soluble PD-1 and soluble PD-L1 refers to proteins with carboxyl-end truncations that remove the transmembrane-spanning regions and are fused to heterologous sequences, specifically the Fc portion of the human immunoglobuling G sequence (Ig) or the hexahistidine epitope tag (His). All binding studies were performed in an HTRF assay buffer consisting of dPBS supplemented with 0.1% (w/v) bovine serum albumin and 0.05% (v/v) Tween-20. For the PD-1-Ig/PD-L1-His binding assay, inhibitors were pre-incubated with PD-L1-His (10 nM final) for 15 m in 4 μl of assay buffer, followed by addition of PD-1-Ig (20 nM final) in 1 μl of assay buffer and further incubation for 15 m. PD-L1 fusion proteins from either human, cynomologous macaques, mouse, or other species were used. HTRF detection was achieved using europium crypate-labeled anti-Ig monoclonal antibody (1 nM final) and allophycocyanin (APC) labeled anti-His monoclonal antibody (20 nM final). Antibodies were diluted in HTRF detection buffer and 5 μl was dispensed on top of binding reaction. […] Additional binding assays were established between PD-1-Ig/PD-L2-His (20 and 5 nM, respectively), CD80-His/PD-L1-Ig (100 and 10 nM, respectively) and CD80-His/CTLA4-Ig (10 and 5 nM, respectively).
Recombinant Proteins. […] Human PD-L2-His (Sino Biologicals), CD80-His (Sino Biologicals), CTLA4-Ig (RnD Systems) were all obtained through commercial sources.

T1 sequence (Q9NZQ7 with tags, fused parts or gaps): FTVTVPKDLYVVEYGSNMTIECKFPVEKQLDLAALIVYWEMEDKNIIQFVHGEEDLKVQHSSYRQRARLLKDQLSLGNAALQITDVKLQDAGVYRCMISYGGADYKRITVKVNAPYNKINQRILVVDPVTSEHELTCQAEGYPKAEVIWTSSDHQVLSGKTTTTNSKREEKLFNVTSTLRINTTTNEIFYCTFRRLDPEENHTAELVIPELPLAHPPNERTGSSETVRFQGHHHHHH

pIC50	Compound
8.30	CCCC[C@H]1C(=O)N(C)[C@@H](CCCC)C(=O)N[C@@H](CC(C)C)C(=O)N[C@H](C(=O)NCC(N)=O)CNCC(=O)N[C@@H](Cc2ccc(O)cc2)C(=O)N(C)[C@@H](C)C(=O)N[C@@H](CC(N)=O)C(=O)N2CCC[C@H]2C(=O)N[C@@H](CCC(N)=O)C(=O)N[C@@H](CCC(=O)O)C(=O)N2C[C@H](O)C[C@H]2C(=O)N[C@@H](Cc2c[nH]c3ccccc23)C(=O)N[C@@H](CC(N)=O)C(=O)N[C@@H](Cc2cn(CC(=O)O)c3ccccc23)C(=O)N1C [Example 9007]

Same assay, conditions: PD-1-Ig (20 nM) / PD-L1-His (10 nM); range classes

pIC50	Compound
5.00 to 7.00	CCCC[C@H]1C(=O)N(C)[C@@H](CCCC)C(=O)N[C@@H](CC(C)C)C(=O)NCC(=O)NCCC(=O)N[C@@H](Cc2ccc(O)cc2)C(=O)N(C)[C@@H](C)C(=O)N[C@@H](CC(N)=O)C(=O)N2CCC[C@H]2C(=O)N[C@@H](Cc2c[nH]cn2)C(=O)N[C@@H](CC(C)C)C(=O)N2C[C@H](O)C[C@H]2C(=O)N[C@@H](Cc2c[nH]c3ccccc23)C(=O)NCC(=O)N[C@@H](Cc2c[nH]c3ccccc23)C(=O)N1C [Example 5004] (cyclo(GW[NMeNle][NMeNle]LG[βAla]Y[NMeA]NPHL[Hyp]W))
5.00 to 7.00	CCCC[C@H]1C(=O)N(C)[C@@H](CCCC)C(=O)N[C@@H](CC(C)C)C(=O)NCCCC(=O)NCC(=O)N[C@@H](Cc2ccc(O)cc2)C(=O)N(C)[C@@H](C)C(=O)N[C@@H](CC(N)=O)C(=O)N2CCC[C@H]2C(=O)N[C@@H](Cc2c[nH]cn2)C(=O)N[C@@H](CC(C)C)C(=O)N2C[C@H](O)C[C@H]2C(=O)N[C@@H](Cc2c[nH]c3ccccc23)C(=O)NCC(=O)N[C@@H](Cc2c[nH]c3ccccc23)C(=O)N1C [Example 5005] (cyclo(GW[NMeNle][NMeNle]L[GABA]GY[NMeA]NPHL[Hyp]W))
7.00 to 8.00	CCCC[C@H]1C(=O)N(C)[C@@H](CCCC)C(=O)N[C@@H](CC(C)C)C(=O)N[C@@H](C)C(=O)NCC(=O)N[C@@H](Cc2ccc(O)cc2)C(=O)N(C)[C@@H](C)C(=O)N[C@@H](CC(N)=O)C(=O)N2CCC[C@H]2C(=O)N[C@@H](CN)C(=O)N[C@@H](CC(C)C)C(=O)N2C[C@H](O)C[C@H]2C(=O)N[C@@H](Cc2c[nH]c3ccccc23)C(=O)N[C@@H](CCN)C(=O)N[C@@H](Cc2c[nH]c3ccccc23)C(=O)N1C [Example 5006] (cyclo(AGY[NMeA]NP[Dap]L[Hyp]W[Dab]W[NMeNle][NMeNle]L))
8.00 to 9.00	CCCC[C@H]1C(=O)N(C)[C@@H](CCCC)C(=O)N[C@@H](CC(C)C)C(=O)N[C@H](C)C(=O)NCC(=O)N[C@@H](Cc2ccc(O)cc2)C(=O)N(C)[C@@H](C)C(=O)N[C@@H](CC(N)=O)C(=O)N2CCC[C@H]2C(=O)N[C@@H](CN)C(=O)N[C@@H](CC(C)C)C(=O)N2C[C@H](O)C[C@H]2C(=O)N[C@@H](Cc2c[nH]c3ccccc23)C(=O)N[C@@H](CCN)C(=O)N[C@@H](Cc2c[nH]c3ccccc23)C(=O)N1C [Example 5007] (cyclo([Dab]W[NMeNle][NMeNle]L[dA]GY[NMeA]NP[Dap]L[Hyp]W))
8.00 to 9.00	CCCC[C@H]1C(=O)N(C)[C@@H](CCCC)C(=O)N[C@@H](CC(C)C)C(=O)N2CCC[C@@H]2C(=O)NCC(=O)N[C@@H](Cc2ccc(O)cc2)C(=O)N(C)[C@@H](C)C(=O)N[C@@H](CC(N)=O)C(=O)N2CCC[C@H]2C(=O)N[C@@H](CN)C(=O)N[C@@H](CC(C)C)C(=O)N2C[C@H](O)C[C@H]2C(=O)N[C@@H](Cc2c[nH]c3ccccc23)C(=O)N[C@@H](CCN)C(=O)N[C@@H](Cc2c[nH]c3ccccc23)C(=O)N1C [Example 5008] (cyclo([Dab]W[NMeNle][NMeNle]L[dP]GY[NMeA]NP[Dap]L[Hyp]W))
8.00 to 9.00	CCCC[C@H]1C(=O)N(C)[C@@H](CCCC)C(=O)N[C@@H](CC(C)C)C(=O)N(C)CC(=O)NCC(=O)N[C@@H](Cc2ccc(O)cc2)C(=O)N(C)[C@@H](C)C(=O)N[C@@H](CC(N)=O)C(=O)N2CCC[C@H]2C(=O)N[C@@H](CN)C(=O)N[C@@H](CC(C)C)C(=O)N2C[C@H](O)C[C@H]2C(=O)N[C@@H](Cc2c[nH]c3ccccc23)C(=O)N[C@@H](CCN)C(=O)N[C@@H](Cc2c[nH]c3ccccc23)C(=O)N1C [Example 5009] (cyclo([Dab]W[NMeNle][NMeNle]L[Sar]GY[NMeA]NP[Dap]L[Hyp]W))
8.00 to 9.00	CCCC[C@H]1C(=O)N(C)[C@@H](CCCC)C(=O)N[C@@H](CC(C)C)C(=O)N[C@H](C(=O)NCC(N)=O)CNCC(=O)N[C@@H](Cc2ccc(O)cc2)C(=O)N(C)[C@@H](C)C(=O)N[C@@H](CC(N)=O)C(=O)N2CCC[C@H]2C(=O)N[C@@H](CCC(N)=O)C(=O)N[C@@H](CC(C)C)C(=O)N2C[C@H](O)C[C@H]2C(=O)N[C@@H](Cc2c[nH]c3ccccc23)C(=O)N[C@@H](CC(N)=O)C(=O)N[C@@H](Cc2cn(CC(=O)O)c3ccccc23)C(=O)N1C [Example 9005]
8.00 to 9.00	CCCC[C@H]1C(=O)N(C)[C@@H](CCCC)C(=O)N[C@@H](CC(C)C)C(=O)N[C@H](C(=O)NCC(N)=O)CNCC(=O)N[C@@H](Cc2ccc(O)cc2)C(=O)N(C)[C@@H](C)C(=O)N[C@@H](CC(N)=O)C(=O)N2CCC[C@H]2C(=O)N[C@@H](CCC(N)=O)C(=O)N[C@@H](CC(=O)O)C(=O)N2C[C@H](O)C[C@H]2C(=O)N[C@@H](Cc2c[nH]c3ccccc23)C(=O)N[C@@H](CC(N)=O)C(=O)N[C@@H](Cc2cn(CC(=O)O)c3ccccc23)C(=O)N1C [Example 9006]
8.00 to 9.00	CCCC[C@H]1C(=O)N(C)[C@@H](CCCC)C(=O)N[C@@H](CC(C)C)C(=O)N[C@H](C(=O)NCC(N)=O)CNCC(=O)N[C@@H](Cc2ccc(O)cc2)C(=O)N(C)[C@@H](C)C(=O)N[C@@H](CC(N)=O)C(=O)N2CCC[C@H]2C(=O)N[C@@H](CCC(N)=O)C(=O)N[C@@H](CCC(N)=O)C(=O)N2C[C@H](O)C[C@H]2C(=O)N[C@@H](Cc2c[nH]c3ccccc23)C(=O)N[C@@H](CC(N)=O)C(=O)N[C@@H](Cc2cn(CC(=O)O)c3ccccc23)C(=O)N1C [Example 9008]
8.00 to 9.00	CCCC[C@H]1C(=O)N(C)[C@@H](CCCC)C(=O)N[C@@H](CC(C)C)C(=O)N[C@H](C(=O)NCC(N)=O)CNCC(=O)N[C@@H](Cc2ccc(F)cc2)C(=O)N(C)[C@@H](C)C(=O)N[C@@H](CC(N)=O)C(=O)N2CCC[C@H]2C(=O)N[C@@H](CCC(N)=O)C(=O)N[C@@H](CC(C)C)C(=O)N2C[C@H](O)C[C@H]2C(=O)N[C@@H](Cc2c[nH]c3ccccc23)C(=O)N[C@@H](CC(N)=O)C(=O)N[C@@H](Cc2cn(CC(=O)O)c3ccccc23)C(=O)N1C [Example 9009]
7.00 to 8.00	CCCC[C@H]1C(=O)N(C)[C@@H](CCCC)C(=O)N[C@@H](CC(C)C)C(=O)N[C@H](C(=O)NCC(N)=O)CNCC(=O)N[C@@H](Cc2ccc(F)cc2)C(=O)N(C)[C@@H](C)C(=O)N[C@@H](CC(N)=O)C(=O)N2CCC[C@H]2C(=O)N[C@@H](CCC(N)=O)C(=O)N[C@@H](CC(=O)O)C(=O)N2C[C@H](O)C[C@H]2C(=O)N[C@@H](Cc2c[nH]c3ccccc23)C(=O)N[C@@H](CC(N)=O)C(=O)N[C@@H](Cc2cn(CC(=O)O)c3ccccc23)C(=O)N1C [Example 9010]
7.00 to 8.00	CCCC[C@H]1C(=O)N(C)[C@@H](CCCC)C(=O)N[C@@H](CC(C)C)C(=O)N[C@H](C(=O)NCC(N)=O)CNCC(=O)N[C@@H](Cc2ccc(F)cc2)C(=O)N(C)[C@@H](C)C(=O)N[C@@H](CC(N)=O)C(=O)N2CCC[C@H]2C(=O)N[C@@H](CCC(N)=O)C(=O)N[C@@H](CCC(=O)O)C(=O)N2C[C@H](O)C[C@H]2C(=O)N[C@@H](Cc2c[nH]c3ccccc23)C(=O)N[C@@H](CC(N)=O)C(=O)N[C@@H](Cc2cn(CC(=O)O)c3ccccc23)C(=O)N1C [Example 9011]
7.00 to 8.00	CCCC[C@H]1C(=O)N(C)[C@@H](CCCC)C(=O)N[C@@H](CC(C)C)C(=O)N[C@H](C(=O)NCC(N)=O)CNCC(=O)N[C@@H](Cc2ccc(O)cc2)C(=O)N(C)[C@@H](C)C(=O)N[C@@H](CC(=O)O)C(=O)N2CCC[C@H]2C(=O)N[C@@H](CCC(N)=O)C(=O)N[C@@H](CC(C)C)C(=O)N2C[C@H](O)C[C@H]2C(=O)N[C@@H](Cc2c[nH]c3ccccc23)C(=O)N[C@@H](CC(N)=O)C(=O)N[C@@H](Cc2cn(CC(=O)O)c3ccccc23)C(=O)N1C [Example 9012]
7.00 to 8.00	CCCC[C@H]1C(=O)N(C)[C@@H](CCCC)C(=O)N[C@@H](CC(C)C)C(=O)N[C@H](C(=O)NCC(N)=O)CNCC(=O)N[C@@H](Cc2ccc(O)cc2)C(=O)N(C)[C@@H](C)C(=O)N[C@@H](CC(=O)O)C(=O)N2CCC[C@H]2C(=O)N[C@@H](CCC(N)=O)C(=O)N[C@@H](CC(=O)O)C(=O)N2C[C@H](O)C[C@H]2C(=O)N[C@@H](Cc2c[nH]c3ccccc23)C(=O)N[C@@H](CC(N)=O)C(=O)N[C@@H](Cc2cn(CC(=O)O)c3ccccc23)C(=O)N1C [Example 9013]
8.00 to 9.00	CCCC[C@H]1C(=O)N(C)[C@@H](CCCC)C(=O)N[C@@H](CC(C)C)C(=O)N[C@H](C(N)=O)CNCC(=O)N[C@@H](Cc2ccc(O)cc2)C(=O)N2CCCC[C@H]2C(=O)N[C@@H](CC(=O)O)C(=O)N2CCC[C@H]2C(=O)N[C@@H](CCC(N)=O)C(=O)N[C@@H](CCC(=O)O)C(=O)N2C[C@H](O)C[C@H]2C(=O)N[C@@H](Cc2c[nH]c3ccccc23)C(=O)N[C@@H](CC(N)=O)C(=O)N[C@@H](Cc2cn(CC(=O)O)c3ccccc23)C(=O)N1C [Example 9014]
